Where a SMILES comes first, the peptide text is derived from it.
Experiments:
[1] = target: T1, TIM3 (Mus musculus, UniProt Q8VIM0); experiment: SPR binding, TIM3 immobilized on chip; details: TIM3 50 μg/mL immobilized on nanogold sensor chip (EDC/NHS), flow rate 20 μL/min for about 7 min, read-out: affinity constant (KD)
T1 construct: purchased Chimerigen CHI-MF-210T3-C050
Method: Surface plasmon resonance (SPR) assay. The affinity identification between P26 and TIM3 was performed by immobilizing the TIM3 protein (50 μg/mL) on the surface of the nanogold sensor chip after the chip was activated by EDC/NHS. P26/Gal-9 competition assay was performed by immobilizing Gal-9 protein (25 µg/mL) on the sensor chip. Each sample was injected at a flow rate of 20 μL/min for about 7 min. KD, ka, and kd were calculated by Trace Drawer Evaluation (version 2.0).

[2] = system: MC38-hPD-L1 tumor; experiment: Tumor growth assay, MC38-hPD-L1 tumor-bearing B-hTIM-3 humanized mice; format: in vivo, mouse; details: P26 5 mg/kg/d, ATE 10 mg/kg/4d, n = 7
Method: C57BL/6 mice transgenic for B-hHAVCR2 (TIM3) (Biocytogen, Beijing, China) were used to evaluate the anti-tumor activity of P26 in vivo. After 1 week of adaptive feeding, 6-week-old female mice were inoculated with 0.1 mL of MC38-hPD-L1 cells (1 × 10^6 cells) by subcutaneous injection on the right scapula followed by the measurements of tumor volume and body weight. When the average tumor volume reached about 80 mm^3, mice were randomly divided into […] groups and administrated with different drugs: (A) PBS (control), (B) ATE (PD-L1 inhibitor Atezolizumab, 10 mg/kg/4d, as the positive group), (C) P26 (5 mg/kg/d), and (D) P26 (5 mg/kg/d) plus ATE (10 mg/kg/4d). The weight and tumor volume of the mice were measured twice a week. When the body weight loss (% BWL) was above 20%, the drug was discontinued, and then, ethically acceptable execution to mice was adopted upon the failure of weight loss recovery in 72 h. The weight and volume of tumors were then analyzed.

T1 sequence (Q8VIM0 20-193 limits assumed): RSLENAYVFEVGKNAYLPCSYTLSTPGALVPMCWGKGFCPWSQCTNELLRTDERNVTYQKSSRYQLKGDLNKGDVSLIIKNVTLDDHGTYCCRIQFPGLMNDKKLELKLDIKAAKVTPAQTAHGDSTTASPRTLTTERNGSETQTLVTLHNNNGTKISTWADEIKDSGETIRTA

CC[C@H](C)[C@H](NC(=O)[C@H](Cc1c[nH]cn1)NC(=O)[C@H](CCSC)NC(=O)[C@@H](NC(=O)[C@@H](NC(=O)[C@H](CC(C)C)NC(=O)[C@@H]1CCCN1C(=O)[C@@H](NC(=O)[C@H](CC(C)C)NC(=O)CN)[C@@H](C)CC)[C@@H](C)O)[C@@H](C)O)C(=O)NCC(=O)N[C@@H](CCCCN)C(=O)O [Peptide P26] (H-GLIPLTTMHIGK-OH)
Kd [1]: 34.4 µM

ATE: PD-L1 inhibitor Atezolizumab, positive group
inhibition of MC38-hPD-L1 tumor growth vs solvent control (in words) ([2]; tumor nodules on day 36, Fig. 4b, c): significantly inhibit the growth | tumor volume inhibition rate ([2]; vs PBS control, start day 10, sacrificed day 36, Fig. 4d): 43.71%
